Assay results as given in patent US20090062294A1, “HETEROARYL-SUBSTITUTED UREA MODULATORS OF FATTY ACID AMIDE HYDROLASE” (priority 2007, published 2009).
pIC50: −log10 of the molar value.

Assays:
[1] = tested on: mechanical (tactile) allodynia in the left hind paw; assay: Assay Method 3: Rat Mild Thermal Injury Model (MTI), mechanical allodynia; assay type: in vivo, Sprague-Dawley rats; conditions: 10 mg/Kg p.o.; 0.5 h after administration; mean +/- S.E.M.
From the text: Assay Method 3—Rat Mild Thermal Injury Model (MTI)
Pathogen-free, male albino Sprague-Dawley rats were purchased from Harlan Industries (San Diego, Calif.) and maintained on a 12-h light/dark cycle (lights on at 9:00 AM and off at 9:00 PM) in a climate-controlled room. Food and water were available ad libitum up to the time of the testing.
Under isoflurane/oxygen anesthesia, a first-degree burn injury (erythema without blistering) was produced as follows: the plantar surface of the rat's left hind paw was placed on water-dampened 56° C. hotplate for 20 seconds and steady contact was maintained by applying an 84 g weight to the dorsum (after Nozaki-Taguchi & Yaksh, Neurosci. Lett. 1998, 254, 25-28).
Mild thermal injury results in mechanical allodynia in the left hind paw. Mechanical (tactile) allodynia was assessed by determining the median threshold at which the affected paw was withdrawn from graded stimuli (von Frey filaments ranging from 0.41 to 15.8 g) applied perpendicularly with sufficient force to bend slightly and held for 2-3 seconds against the proximal half of the third and fourth toe surfaces through wire-mesh observation cages. Paw flinching during or immediately following the removal of the stimulus was considered a positive response. A paw withdrawal threshold (PWT) was determined by sequentially increasing and decreasing the stimulus strength and analyzing withdrawal data using an adaptation of the Dixon up-down method, as described (Chaplan et al., J. Neurosci. 1994, 53, 55-63). Rats were included in the study only if their baseline PWT was 3.1623 g or lower (4.5 logarithmically).
Rats were tested for pre-injury thresholds prior to mild thermal injury and again for baseline thresholds after development of mechanical allodynia. Immediately after baseline measurement, test compound or vehicle was administered orally and the measurement was repeated at 0.5 h after administration. The tactile thresholds (log value) were converted to percent of a maximum possible effect ( %MPE): % MPE=[Threshold(t)−Threshold(baseline)]*100/[Threshold(pre)−Threshold(baseline)], where t=post-treatment time. Data were expressed as mean±standard error of the mean (S.E.M.). Statistical analysis was performed using two-way ANOVA with repeated measures with a significance level of p<0.05.
Results for compounds tested in this assay are presented in Table 2, as an average of results obtained. Compounds were tested in free base, hydrochloride salt, and/or trifluoroacetic acid salt forms.

rat FAAH = target: T1, rat FAAH (Rattus norvegicus, UniProt P97612); assay: Assay Method 2: FAAH assay, 3H-anandamide hydrolysis in homogenate of SK-N-MC cells transfected with rat FAAH; assay type: biochemical; conditions: average of results, > = solubility limit or highest concentration tested
T1 sequence (P97612 1-579): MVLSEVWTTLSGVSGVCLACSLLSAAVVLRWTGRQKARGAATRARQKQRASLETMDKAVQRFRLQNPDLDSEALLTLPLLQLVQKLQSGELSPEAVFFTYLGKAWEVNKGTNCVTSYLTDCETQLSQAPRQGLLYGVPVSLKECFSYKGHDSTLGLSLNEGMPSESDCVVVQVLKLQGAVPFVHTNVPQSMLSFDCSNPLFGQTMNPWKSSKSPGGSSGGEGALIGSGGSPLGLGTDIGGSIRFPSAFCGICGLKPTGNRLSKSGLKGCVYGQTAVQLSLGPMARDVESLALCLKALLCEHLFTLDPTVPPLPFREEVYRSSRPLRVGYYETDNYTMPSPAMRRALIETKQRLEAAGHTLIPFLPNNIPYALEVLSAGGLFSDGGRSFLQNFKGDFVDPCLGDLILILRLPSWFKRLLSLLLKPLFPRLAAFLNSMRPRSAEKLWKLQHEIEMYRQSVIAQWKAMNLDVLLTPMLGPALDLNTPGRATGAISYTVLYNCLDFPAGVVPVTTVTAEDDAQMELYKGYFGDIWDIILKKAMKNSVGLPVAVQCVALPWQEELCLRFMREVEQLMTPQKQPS
Procedure, shortened: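 Homogenate of SK-N-MC cells stably transfected with rat FAAH cDNA (G418-selected clones) in pH 9 Tris/EDTA/glycerol/Triton buffer. Incubated with compound and 80 nM final [3H]-anandamide for 1 h at rt. Released [3H]-ethanolamine separated from substrate on activated charcoal filters and counted by scintillation.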

pIC50 (rat FAAH) | Structure (SMILES) | % MPE [1]
8.40 | O=C(Nc1noc2ccccc12)N1CCN(Cc2cccc(Oc3ccc(C(F)(F)F)cc3)c2)CC1 [Example 109, N-1,2-Benzisoxazol-3-yl-4-{3-[4-(trifluoromethyl)phenoxy]benzyl}-piperazine-1-carboxamide] | 0%
7.82 | O=C(Nc1noc2cc(F)ccc12)N1CCN(Cc2cccc(Oc3ccc(Cl)cc3)c2)CC1 [Example 245, 4-[3-(4-Chloro-phenoxy)-benzyl]-piperazine-1-carboxylic acid (6-fluoro-benzo[d]isoxazol-3-yl)-amide] | 36 +/− 10%
